This experiment has as its system H1 human embryonic stem cells. As to the kind of experiment: Four-step differentiation before transplant, RT-PCR of pancreatic endoderm markers after step 4 (Example 18). The experiment is classed as cell-based. To be noted: GDF-8 100 ng/ml + 2.5 μM compound in step 1, versus activin A and Wnt3a. How it is done: The differentiation process was started three days after the cells were seeded onto 6-well plates coated with reduced growth factor […]™. A four-step protocol was used for the in vitro differentiation of H1 human embryonic stem cells to cells expressing markers characteristic of the pancreatic endoderm lineage. Step 1 was conducted over three days to generate definitive endoderm cells. On the first day of step 1, differentiation was initiated by aspirating spent culture medium and adding an equal volume of RPMI-1640 basal medium (Invitrogen; Cat 22400) with 2% Albumin Bovine Fraction V, Fatty Acid Free (FAF BSA) (Proliant Biologicals; Cat #SKU 68700) and 8 ng/ml bFGF. In one treatment group, cells were exposed to 100 ng/ml activin A (PeproTech; Cat #120-14) with 20 ng/ml Wnt3a (R&D Systems; Cat #1324-WN/CF). In a second treatment group, cells were exposed to 100 ng/ml GDF-8 (R&D Systems; Cat #788-G8) with 2.5 μM Compound 40. In a third treatment group, cells were exposed to 100 ng/ml GDF-8 (R&D Systems; Cat #788-G8) with 2.5 μM Compound 202. […]
Step 4 of the differentiation protocol was conducted over three days. […] On the following day, cells in suspension culture were collected and counted. […]

Molecules are shown by their SMILES.

These results are taken from patent publication US9593305B2, “Differentiation of pluripotent stem cells” (Janssen Biotech, Inc., priority 2008, dated 2017).

`C=CCN1CC(=O)NCCCc2cncc(c2)-c2ncnc(n2)Nc2cccc(c2)C1` [Compound 40, 14-Prop-2-en-1-yl-3,5,7,14,17,23,27-heptaazatetracyclo[19.3.1.1˜2.6˜0.1˜8,12˜]heptacosa-1(25), 2(27), 3,5,8(26), 9,11,21,23-nonaen-16-one]: the “PE markers CDX2, MAFA, NGN3, NKX6.1, PDX1 and Ptf1 alpha at the conclusion of step 4 (RT-PCR)” value is given as “expressed equivalent levels of PE markers”.
